# Test results published in patent publication US9393221B2, “Methods and compounds for reducing intracellular lipid storage” (THE GENERAL HOSPITAL CORPORATION, priority 2011, dated 2016).
# Structures can show the parent of a compound that is named as a salt.
# Test system: ATGL-KO iPSCs
# Experiment: High throughput iPSC chemical screening, Oil Red O (ORO) lipid accumulation; on Z-score: test concentration or dose not given here
# Type: cell-based, mouse
# Conditions: for Z-score: normalized ORO level vs DMSO-treated cells, compound present during 7 days differentiation, 96-well, negative = decrease in lipid accumulation; for Rank in normalized ORO score from screen: glycolytic switch compounds
Compound,Z-score,Rank in normalized ORO score from screen
CC1(C)S[C@@H]2[C@H](NC(=O)C3(N)CCCCC3)C(=O)N2[C@H]1C(=O)O [Cyclacillin],2.402,
CC[C@@H](CO)NC(=O)[C@@H]1C=C2c3cccc4[nH]cc(c34)C[C@H]2N(C)C1 [Methylergometrine maleate],0.02492,
CCCCc1ccc2[nH]c(NC(=O)OC)nc2c1 [Parbendazole],39.1106,
CN1CC[C@]23c4ccccc4N[C@H]1[C@]21CCN(C)[C@H]3Nc2ccccc21 [Calycanthine],−0.8381,
NS(=O)(=O)c1cc2c(cc1Cl)NC(CC1CCCC1)NS2(=O)=O (stereo not shown) [Cyclopenthiazide],−1.4107,
CN1C(C(=O)Nc2ccccn2)=C(O)c2ccccc2S1(=O)=O [Piroxicam],0.7254,
O=C1O[C@H]([C@@H](O)CO)C(O)=C1O [Ascorbic acid],0.3599,764
CN(C)[C@@H]1C(O)=C(C(N)=O)C(=O)[C@@]2(O)C(O)=C3C(=O)c4c(O)ccc(Cl)c4[C@@H](O)[C@H]3C[C@@H]12 [Demeclocycline hydrochloride],1.787,
O=c1c2ccccc2[se]n1-c1ccccc1 [Ebselen],−1.5273,52
COc1ccccc1OCC(O)COC(N)=O (stereo not shown) [Methocarbamol],−1.1429,
C=CCOc1ccccc1OCC(O)CNC(C)C (stereo not shown) [Oxprenolol hydrochloride],−0.2057,
CC(=O)CC(c1ccc([N+](=O)[O-])cc1)c1c(O)c2ccccc2oc1=O (stereo not shown) [Acenocoumarol],−1.4804,
C[C@@H]1O[C@@H](O[C@H]2C[C@@H](O)[C@]3(CO)[C@H]4[C@H](O)C[C@]5(C)[C@@H](C6=CC(=O)OC6)CC[C@]5(O)[C@@H]4CC[C@]3(O)C2)[C@H](O)[C@H](O)[C@H]1O.O.O.O.O.O.O.O.O [Strophantine octahydrate],3.188,
O=C(O)Cc1cc(I)c(Oc2ccc(O)c(I)c2)c(I)c1,−0.9554,
CCc1cccc2c3c([nH]c12)C(CC)(CC(=O)O)OCC3 (stereo not shown) [Etodolac],1.6287,
C[C@H](CCC(=O)O)[C@H]1CC[C@H]2[C@@H]3CC[C@@H]4C[C@H](O)CC[C@]4(C)[C@H]3CC[C@]12C [Lithocholic acid],0.8022,
C#C[C@]1(O)CC[C@H]2[C@@H]3CCC4=CC(=O)CC[C@@H]4[C@H]3CC[C@@]21CC [Norgestrel-(−)-D],1.412,
NC(=NCc1ccccc1)NC(=O)c1nc(Cl)c(N)nc1N [Benzamil hydrochloride],−1.083,
"Nc1c(O)cccc1C(=O)CC(N)C(=O)O (racemic) [Kynurenine, 3-hydroxy (R,S)]",0.1567,
Cc1c(Cl)cccc1Nc1ccccc1C(=O)O [Tolfenamic acid],−0.8256,
"CCN(CC)CCOC(=O)C1(C2CCCCC2)CCCCC1 [Dicyclomine hydrochloride, reference compound]",−2.1533,
O=C(O)CCCc1ccc(N(CCCl)CCCl)cc1 [Chlorambucil],−0.8818,
C[C@]12CC[C@H](O)C[C@H]1CC[C@@H]1[C@@H]2C[C@@H](O)[C@]2(C)[C@@H](C3=CC(=O)OC3)CC[C@]12O [Digoxigenin],−1.0521,
C[N+]1(C)CCC(OC(=O)C(O)(c2ccccc2)C2CCCC2)C1 (stereo not shown) [Glycopyrrolate],−0.6161,
CC1(C)O[C@@H]2C[C@H]3[C@@H]4CCC5=CC(=O)CC[C@]5(C)[C@@]4(F)[C@@H](O)C[C@]3(C)[C@]2(C(=O)CCl)O1 [Halcinonide],−0.7085,
CC(C(=O)O)c1ccc(N2Cc3ccccc3C2=O)cc1 (stereo not shown) [Indoprofen],−1.4204,
C[C@H](N)[C@H](O)c1ccc(O)c(O)c1 [Levonordefrin],−0.1555,
COc1ccc2cc1Oc1ccc(cc1)C[C@H]1c3cc(c(OC)cc3CCN1C)Oc1c(OC)c(OC)cc3c1[C@H](C2)N(C)CC3 [Tetrandrine],−1.1905,
COc1c2ccoc2nc2c(OC)c(OCC(O)C(C)(C)O)ccc12 (stereo not shown) [Evoxine],−0.3336,
